# US20250345383A1, “INTRANASAL ADMINISTRATION OF POLYSULFIDE” (The General Hospital Corporation, priority 2022, published 2025)
# What was measured:
# mice subjected to SCI = test: Mouse model of spinal cord ischemia (SCI): delayed paraplegia, hindlimb motor function by Basso mouse scale (BMS); type: in vivo
# Description: Adult C57BL/6J mice (12-18 weeks old) of both sexes were purchased from Jackson Laboratory (Bar Harbor, ME, USA). Both male and female mice were used in experiments to investigate the neuroprotective effect of GSSSG on motor function after SCI. […] All mice were housed in a temperature and humidity-controlled room in the animal center with a 12-hour light/dark cycle, and were provided with food and water ab libitum. To permit access by mice that were recovering from surgery, additional food pellets were inserted into hydrated gel placed on the bedding. A randomized paired design was used to minimize the variability between each treatment group. Mice were paired based on weight, age, delivery dates, and when possible, holding cages. After the pairing, mice were randomly assigned to different treatments.
# The surgical procedures to produce delayed paraplegia in mice were performed as previously described^6 (FIG. 2A). Mice were anesthetized with 5% isoflurane in 100% O2 and tracheally intubated with a 20-gauge catheter (Angiocath; Becton Dickinson, Franklin Lakes, NJ, USA). […] The paravertebral muscle temperature was measured using a T-type implantable thermocouple probe (IT-18) and a T-type pod (ADInstruments, Colorado Springs, CO, USA). […] A median sternotomy extended from the apex of the manubrium to the second rib. The aortic arch was gently isolated between the left common carotid artery (LCCA) and the left subclavian artery (LSA), avoiding the vagus nerve and the left recurrent laryngeal nerve. […] After ischemia, the clips were removed in reverse order. Incisions were closed in layers and mechanical ventilation was discontinued. After stable spontaneous respiration was confirmed, mice were extubated.
# The previously described surgical procedures^6 were modified as follows. The respiratory rate during the procedure was increased to 230 breaths/minute, because hyperventilation promotes the occurrence of delayed paraplegia caused by spinal cord ischemia^33. A laser Doppler perfusion monitor (moorVMS-LDF1; Moor Instruments, Millwey, UK) was used to monitor the femoral artery blood flow^28,29. […] To improve the accuracy of surgical procedures, a microscope (Leica MZ95; Leica Microsystems, Buffalo Grove, IL, USA) was used to isolate the aortic arch and place the clips.
# Study drugs were administered intranasally using a single-channel pipettor. Mice were anesthetized with 3% isoflurane using a non-rebreathing circuit with a mouse nose cone (VetEquip, Inc., Livermore, CA, USA). While the drugs were administered, the nose cone was removed and mice were allowed to breathe air. Approximately 6 μL of each drug was administered into the mouse's nostrils and the mouse inhaled the droplets during inspiration. […]
# [1] = system: ventral horn of lumbar spinal cord; test: Histology of lumbar spinal cord 48 hours after SCI (Nissl, Iba-1, cleaved caspase-3); type: in vivo, mouse
# Method: The lumbar enlargement of the spinal cord was removed 48 hours after surgery and sectioned to […] thickness using a cryotome (CM1850UV; Leica Biosystems, Heidelberger, Germany). Nissl staining was conducted using the Nissl stain kit (VitroVivo Biotech, Rockville, MD, USA) according to the protocol recommended by the manufacturer. Immunohistochemical staining for ionized calcium-binding adaptor molecule 1 (Iba-1) and cleaved caspase-3 was performed as previously described^6,15. The stained sections were examined using an epifluorescence microscope (Nikon Eclipse 80i; Nikon Instruments, Inc., Melville, NY, USA).
# The number of stained cells was counted in one field (0.26 mm^2) under high magnification (200×) in 3 different sections of spinal cord from each mouse by an investigator who was blinded to the identity of the samples. The average number of stained cells was calculated for each mouse. For quantitative analysis of Iba-1 staining, the Iba-1-positive area per one field (0.26 mm^2) under high magnification (200×) in 3 different ventral horn sections for each mouse was calculated using the ImageJ image-processing program (National Institutes of Health, Bethesda, MD, USA). The mean area of Iba-1 staining in the spinal cords of mice in the sham procedure group was set to 1 and the relative amount of Iba-1 staining was determined for each experimental group of mice. Each group included 5 mice.
# [2] = system: CCL2, CXCL1, IL-1β, IL-6, TNF-α, Bcl-2, Bcl-XL, SQOR and other sulfide-metabolizing enzymes mRNA; test: mRNA levels in lumbar spinal cords 48 hours after surgery (quantitative real-time PCR); type: in vivo, mouse; conditions: intranasal GSSSG after SCI
# Method: Messenger RNA (mRNA) levels were measured as previously described^15 using lumbar spinal cords at 48 hours after surgery. The mRNA levels of C-C motif chemokine 2 (CCL2), C-X-C motif chemokine ligand 1 (CXCL1), interleukin (IL)-1β, IL-6, tumor necrosis factor (TNF)-α, B-cell lymphoma 2 (Bcl-2), B-cell lymphoma-extra large (Bcl-XL), cystathionine beta synthase, cystathionine gamma lyase, 3-mercaptopyruvate sulfurtransferase, sulfide:quinone oxidoreductase (SQOR), ethylmaronic encephalopathy 1, thiosulfate sulfurtransferase, sulfite oxidase, cysteinyl-tRNA synthetase 1, and cysteinyl-tRNA synthetase 2 were standardized to the level of 18S ribosomal RNA using quantitative real-time polymerase chain reaction (7500 Fast Real-Time PCR System, Thermo Fisher Scientific, Waltham, MA, USA).
# [3] = LC-MS/MS of ^34S-labeled GSSSG and sulfane sulfur species in CNS and plasma after intranasal GS^34SSG; type: in vivo, mouse; conditions: after intranasal administration
# Method: We used LC-MS/MS analysis to measure the amount of ^34S-labeled GSSSG ([^32S2, ^34S]GSSSG) in the CNS and plasma after intranasal administration of GS^34SSG, an isotope of endogenous GSSSG^9,35,36. The ratios of ^34S-labeled sulfane sulfur species ([^32S, ^34S]GSSH, [^32S, ^34S]cysteine hydropersulfide (CysSSH), and [^32S2, ^34S]cysteine trisulfide (CysSSSCys)) to endogenous sulfane sulfur species ([^32S2]GSSH, [^32S2]CysSSH, and […]) were also quantitatively evaluated. At 30 minutes after intranasal administration of 50 mg/kg of GS^34SSG, blood was obtained and four different central nervous tissues were harvested: olfactory bulb and forebrain; brainstem; cervical and thoracic spinal cord, and lumbar spinal cord. A total of 30 mg of each tissue was homogenized in 300 μl of ice-cold methanol solution containing 5 mM β-(4-hydroxyphenyl)ethyl iodoacetamide (HPE-IAM; Santa Cruz Biotechnology, Dallas, TX, USA). Twenty-five μl of plasma was mixed with 75 μl of ice-cold methanol solution containing 5 mM HPE-IAM. Samples were incubated for 20 minutes at 37° C. in the dark. After centrifugation (14,000×g for tissues, 1,870×g for plasma, 10 minutes, 4° C.), the supernatant was separated and diluted with 0.1% formic acid for LC-MS/MS analysis, and the pellet was sonicated to measure the protein concentration by BCA assay. The amount of [^32S2, ^34S]GSSSG was quantified in selective reaction monitoring (SRM) with precursor ion (647.14 m/z), product ion (389.1 m/z), and higher energy collisional dissociation (21 v). The ratios of [^32S, ^34S]GSSH to [^32S2]GSSH, [^32S, ^34S]CysSSH to [^32S2]CysSSH, and [^32S2, ^34S]CysSSSCys to [^32S3]CysSSSCys were calculated from their peak area measured by Dionex UltiMate 3000 RS UPLC-Orbitrap Exploris 480 mass spectrometer (Thermo Fisher Scientific, Waltham, MA, USA). In brief, samples were subjected to the UPLC system with a Hypersil Gold C-18 (100×2.1 mm, 3.0 μm, Thermo Fisher Scientific, Waltham, MA, USA) column and were then eluted by a linear methanol gradient of the mobile phase (0-90%, 15 minutes) in the presence of 0.1% formic acid at a flow rate of 0.2 ml/minute at 40° C. The raw data were analyzed by Compound Discoverer 3.3 software (Thermo Fisher Scientific, Waltham, MA, USA). The molecular weights of these sulfane sulfur species combined with HPE-IAM were determined based on previous reports^9,11,37.
# primary cortical neurons = test: Relative sulfane sulfur levels in primary cortical neurons (SSip-1 DA); type: cell-based, mouse; conditions: incubation at 10 μM for 20 minutes; relative to untreated neurons
# Method: Primary cortical neurons were isolated from the cerebral cortices of C57BL/6J mice of both sexes at embryonic day 15, as previously described 39. Primary cortical neurons were maintained at 37° C. in a humidified tissue culture chamber with 5% CO2 and cells were used on day 11 after harvest.
# Primary cortical neurons or SH-SY5Y cells, a human neuroblastoma cell line (American Type Culture Collection, Manassas, VA, USA), were incubated with SSip-1 DA […] at 37° C. for 20 minutes in the dark. Cells were washed with pre-warmed HBSS containing calcium and magnesium (Thermo Fisher Scientific, Waltham, MA, USA) and then cells were incubated with GSSSG, sodium trisulfide (Na2S3; Dojindo Molecular Technologies, Inc., Rockville, MD, USA), PTN-SSS, or vehicle alone for 20 minutes at 37° C. in the dark. Fluorescence intensities were measured using a microplate reader.
compound,measurement,setting,value
"N[C@@H](CCC(=O)N[C@@H](CSSSC[C@H](NC(=O)CC[C@H](N)C(=O)O)C(=O)NCC(=O)O)C(=O)NCC(=O)O)C(=O)O [GSSSG, glutathione trisulfide]",male mice rescued from delayed paraplegia,"mice subjected to SCI; GSSSG vs GSSG comparison, n=6 per group, intranasal GSSSG 50 mg/kg, GSSG 53 mg/kg",83%
same,mice in which development of delayed paraplegia was prevented,"mice subjected to SCI; male mice, n=11 per group, intranasal at 0, 8, 23, 32 hours after surgery, GSSSG 50 mg/kg, GSH 45.2 mg/kg",73%
same,number of cleaved caspase-3-positive neurons in lumbar spinal cord,[1]; intranasal GSSSG,prevented the SCI-induced increase
same,number of viable neurons (Nissl stain) in ventral horns of lumbar spinal cord,"[1]; intranasal GSSSG at 0, 8, 23, 32 hours, vs vehicle alone",significant increase in the number of viable neurons
same,Iba-1-positive staining (microglial activation) in lumbar spinal cord,"[1]; intranasal GSSSG, vs vehicle alone",significant reduction in staining for Iba-1
same,mRNA encoding SQOR in lumbar spinal cord,[2],decreased the level of mRNA encoding SQOR
same,mRNA encoding pro-inflammatory cytokines in lumbar spinal cord,[2],attenuated the upregulation
same,mRNA levels encoding other enzymes that synthesize or metabolize sulfides or persulfides,[2],no effect
same,"mRNA levels of anti-apoptotic genes Bcl-2 and Bcl-XL, vehicle alone vs GSSSG",[2],no significant difference
same,increase of levels of multiple sulfane sulfur species in the lumbar spinal cord,[3],10 to 100 fold
same,levels of intracellular sulfane sulfur in primary cortical neurons,primary cortical neurons,increased levels of intracellular sulfane sulfur
